According to patent publication US20200085734A1, “PHARMACEUTICAL DOSAGE FORMS CONTAINING TASK-I AND TASK-3 CHANNEL INHIBITORS, AND THE USE OF SAME IN BREATHING DISORDER THERAPY” (priority 2016, published 2020):
Marks after values point to notes of the source that are not given here.

System: collapsibility of the upper airways
Test: Animal model of obstructive sleep apnoea in the pig (collapse of the upper airways under negative pressure after nasal administration)
Format: in vivo, German Landrace pigs
Text: The effects of the formulations according to the invention of the inhibitors of TASK-1 and/or TASK-3 channels on the activation threshold of the genioglossus muscle by negative pressure and the collapsibility of the upper airways were investigated in a pig model for obstructive sleep apnoea. Using negative pressure, it is possible to induce collapse and thus obstruction of the upper airways in anaesthetized, spontaneously breathing pigs [Wirth et al., Sleep 36, 699-708 (2013)]. German Landrace pigs were used for the model. Since the nasal axis is in an almost vertical position in humans in a horizontal sleeping position, the pigs in the experiments were fixed in a sitting position (70 degrees), wherein the nose pointed upwards. After nasal administration, the formulation therefore flowed downwards over all regions of the upper airways. The pigs were anaesthetized and tracheotomized. One cannula each was inserted into the rostral and the caudal part of the trachea. Using a T connector, the rostral cannula was connected on the one hand to a device generating negative pressure and on the other hand to the caudal cannula. Using a T connector, the caudal cannula was connected to the rostral cannula and to a tube which allowed spontaneous breathing circumventing the upper airways. By appropriate closing and opening of the tubes it was thus possible for the pig to change from normal nasal breathing to breathing via the caudal cannula during the time when the upper airways were isolated and were connected to the device for generating negative pressure. The muscle activity of the Musculus genioglossus was recorded by electromyogram (EMG). At certain points in time, the collapsibility of the upper airways was tested by having the pig breathe via the caudal cannula and applying negative pressures of −50, −100 and −150 mbar (corresponding to −50, −100 and −150 cm water column (cm H2O)) to the upper airways. This caused the upper airways to collapse, which manifested itself in an interruption of the airflow and a pressure drop in the tube system. This test was conducted prior to administration of the test substance and at certain intervals after administration of the test substance. An appropriately effective test substance could prevent this collapse of the airways in the inspiratory phase. After changeover from nasal breathing to breathing via the caudal cannula, it was not possible to measure any EMG activity of the Musculus genioglossus in the anaesthetized pig. As a further test, the negative pressure at which EMG activity restarted was then determined. This threshold value was, if a test substance was effective, shifted to more positive values. The test was likewise conducted prior to the administration of the test substance and at certain intervals after the administration of the test substance. The test substance was administered by the nasal route. The results shown in the tables which follow were conducted with the compounds listed in Table 1 as Example 1, Example 3 and Example 4. Unless stated otherwise, the data were measured at a negative pressure of −100 mbar (corresponding to −100 cm water column (cm H2O)) on the upper airways. The active ingredients listed in Table 1 as Example 1, Example 3 and Example 4 were dissolved in the various formulations listed in Table 2 below and administered in an amount of 0 μg, 3 μg, 10 μg, 30 μg or 100 μg per pig. The active ingredient formulation or the pure vehicle was each administered with a pipette at a volume of 400 μl in each nostril. The duration of action in this pig model is defined as the time [min] in which a collapse of the upper airways was not observed in any animal, as a mean value of the specified number of animals. A duration of action specified as “>” X min signifies that the experiment was terminated at X min and up to this point a collapse of the upper airways was still not observed in any animal

In the case of `O=C(C1CCCC1)N1CCN(Cc2c(-c3ccc(Br)cc3)nc3ccccn23)CC1` [Example 1, (4-{[2-(4-bromophenyl)imidazo[1,2-a]pyridin-3-yl]methyl}piperazin-1-yl)(cyclopentyl)methanone], the “Duration of action, mean value” (Formulation 1 (0% PEG400), 10 μg nasal, reduced pressure -50 mbar) is reported as 150 min, the “Duration of action, mean value” (Formulation 1 (0% PEG400), 10 μg nasal, reduced pressure -100 mbar) is reported as 120 min and the “Duration of action, mean value” (Formulation 3 (20% w/v PEG400), 10 μg nasal, reduced pressure -50 mbar) is reported as >210 min. For the same compound, the “Duration of action, mean value” (Formulation 3 (20% w/v PEG400), 10 μg nasal, reduced pressure -100 mbar) was 180 min.
`COc1cccc(C(=O)N2CCN(Cc3c(-c4ccc(Cl)cc4)nc4ccccn34)CC2)n1` [Example 3, (4-{[2-(4-chlorophenyl)imidazo[1,2-a]pyridin-3-yl]methyl}piperazin-1-yl)(6-methoxypyridin-2-yl)methanone] was tested, and the “Duration of action, mean value” (Formulation 1 (phosphate buffer pH 7/polysorbate 80 90/10, 0% PEG400), 3 μg nasal per pig, -100 mbar) was 150 min, the “Duration of action, mean value” (Formulation 1 (phosphate buffer pH 7/polysorbate 80 90/10, 0% PEG400), 30 μg nasal per pig, -100 mbar) was 180* min and the “Duration of action, mean value” (Formulation 2 (100% w/v PEG400), 3 μg nasal, -100 mbar) was >240 min. The “Duration of action, mean value” (Formulation 3 (phosphate buffer pH 7/polysorbate 80/PEG400 70/10/20), 3 μg nasal per pig, -100 mbar) was 180 min, the “Duration of action, mean value” (Formulation 3 (phosphate buffer pH 7/polysorbate 80/PEG400 70/10/20), 30 μg nasal per pig, -100 mbar) was 300 min and the “Duration of action, mean value” (Formulation 4 (5% w/v PEG400, 10% polysorbate 80, 85% phosphate buffer pH 7), 3 μg nasal, -100 mbar) was 180 min. For the same compound, the “Duration of action, mean value” (Formulation 5 (2.5% w/v PEG400, 10% polysorbate 80, 87.5% phosphate buffer pH 7), 3 μg nasal, -100 mbar) was 150 min, the “Duration of action, mean value” (Formulation 6 (20% w/v PEG400, 2.5% w/v glycerol 85%, 10% polysorbate 80, 67.5% phosphate buffer pH 7), 3 μg nasal, -100 mbar) was 240 min and the “Duration of action, mean value” (Formulation 7 (20% w/v propylene glycol, 10% polysorbate 80, 70% phosphate buffer pH 7), 30 μg nasal, -100 mbar) was 180 min. For the same compound, the “Duration of action, mean value” (Formulation 9 (1.25% w/v Na-CMC, 10% polysorbate 80, 88.75% phosphate buffer pH 7, no PEG), 3 μg nasal, -100 mbar) was 120 min.
`O=C(c1ccccc1F)N1CCN(Cc2c(-c3ccc(Br)cc3)nc3ccccn23)CC1` [Example 4, (4-{[2-(4-bromophenyl)imidazo[1,2-a]pyridin-3-yl]methyl}piperazin-1-yl)(2-fluorophenyl)methanone] was tested, and the “Duration of action, mean value” (Formulation 1 (0% PEG400), 100 μg nasal, reduced pressure -50 mbar) was 180 min, the “Duration of action, mean value” (Formulation 1 (0% PEG400), 100 μg nasal, reduced pressure -100 mbar) was 180 min and the “Duration of action, mean value” (Formulation 3 (20% w/v PEG400), 100 μg nasal, reduced pressure -50 mbar) was >210 min. The “Duration of action, mean value” (Formulation 3 (20% w/v PEG400), 100 μg nasal, reduced pressure -100 mbar) was 180 min.
